Data set [1] deals with T1, MR-LBD binding to co-activator peptides (Homo sapiens, UniProt P08235, C808S).
T1 construct: MR-LBD (amino acids 712–984) with the mutations C808S; 6-HN tag (thrombin cleavable) (N); made in house
T1 sequence (P08235 712-984 C808S): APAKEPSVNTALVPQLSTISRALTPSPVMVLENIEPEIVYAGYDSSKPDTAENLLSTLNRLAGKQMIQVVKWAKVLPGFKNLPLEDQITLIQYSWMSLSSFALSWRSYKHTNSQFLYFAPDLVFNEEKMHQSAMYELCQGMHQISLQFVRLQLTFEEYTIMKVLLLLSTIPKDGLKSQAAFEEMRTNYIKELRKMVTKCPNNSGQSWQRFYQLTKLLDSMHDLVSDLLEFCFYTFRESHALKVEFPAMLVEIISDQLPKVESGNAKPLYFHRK
As to the kind of experiment: co-factor peptide recruitment by surface plasmon resonance. The note with it: 50 μM compound, relative to dexamethasone, seven peptides. A general note: In SPR one partner is held on a chip, and binding of the other changes the refractive index at the surface.
Description: Co-activator recruitment of MR was determined using surface plasmon resonance (SPR) biosensor (Biacore 3000, GE Healthcare) by probing the level of receptor binding to seven surface-immobilized co-activator peptides. All peptides carried an N-terminal biotin for surface-immobilisation, the following peptides and sequences were used:
Prior to the SPR measurements, excess dexamethasone was removed by gel filtration via a passage through a PD10 column (GE Healthcare) equilibrated in SPR running buffer (10 mM HEPES, 50 mM NaCl, 0,005% P20, pH 7.6). […] The surface was prepared through immobilization of the biotinylated peptides on a streptavidin chip (GE Healthcare) to levels of 1000±300 RU. The binding level at equilibrium was monitored for all samples including the reference sample that contained remaining traces of dexamethasone. All data was normalized to this reference sample in order to quantify the effects on peptide binding without bias by receptor instability. The surface was regenerated with 0.5% (w/v) SDS after each injection.

The test system of data set [2] is uni-nephrectomised db/db mice. As to the kind of experiment: organ protection in db/db uni-nephrectomised mice. Type of data set: in vivo.
Description: Obese diabetic male db/db mice (BKS.Cg-Dock7^m +/+ Lepr^db/J homozygotes) and their littermate male db/m mice were obtained from the Jackson Laboratory (Bar Harbor, ME, USA). […] Mice were subjected to right uninephrectomy at 8 weeks of age to hasten the development of diabetic nephropathy as described previously [43]. Db/m mice that received a uninephrectomy at 8 weeks of age served as the operation control. […] All surgery was performed under isoflurane anesthesia, and all efforts were made to minimize suffering.
The blood glucose level and glycosylated hemoglobin (HbA1C) levels were monitored in tail blood samples using a blood glucose meter (Glucometer Elite XL, Bayer Healthcare, Elkhart, IN, USA) and the DC 2000+ HbA1C kit (Bayer Healthcare), respectively, before treatment and at the time of sacrifice. Twenty-four-hour urine was obtained from each mouse after placement in metabolic cages before treatment and at the time of sacrifice. Urine albumin was measured using the DC2000+ microalbumin reagent kit (Bayer Healthcare).
Mice were sacrificed under isoflurane anesthesia. Blood samples were obtained by cardiac puncture for the measurements of plasma compound, K^+ and creatinine concentrations. Plasma K^+ levels were determined on a Radiometer ABL 700 blood gas analyser (Radiometer, Copnchagen DK). Plasma creatinine levels were determined by LC-MS/MS. Urine creatinine was measured by the Jaffe method (Creatinine FS, REF117119910021, DiaSys). Kidneys were perfused through the heart with cold PBS and then excised. One piece of renal cortex was fixed in 10% neutralized formalin for histological staining.
Formalin-fixed renal cortex tissues were subsequently embedded in paraffin. Three-micrometer sections were cut from the tissue blocks and stained with periodic acid-Schiff (PAS). The PAS-positive glomerular matrix was quantitated in a blinded fashion by a computer-assisted method as previously described [43]. At least 20 glomeruli from each individual mouse were assessed. The PAS-positive material area in the mesangium was normalized by that of the total glomerular tuft where the percentage of mesangial matrix occupying each glomerulus area was rated. Glomerular sclerosis index was graded from 0 to 4+ as follows: 0 represents no lesion, 1+ represents sclerosis of <25% of the glomerulus, while 2 =, 3+ and 4+ represent sclerosis of 25% to 50%, >50% to 75%, and >75% of the glomerulus, respectively. A whole kidney average sclerosis index was obtained by averaging scores from all glomeruli on one section.

The values below come from paper PMC5825103 (PLoS ONE, 2018).

Consider `C[C@]12CCC(=O)C=C1CC[C@@H]1[C@@H]2[C@@H](O)C[C@]2(C=O)[C@@H](C(=O)CO)CC[C@@H]12` [aldosterone], for which the co-activator peptide binding entry in data set [1] is given as “strongest peptide binding”.

For `CCOC(=O)[C@H](CCc1ccccc1)N[C@@H](C)C(=O)N1CCC[C@H]1C(=O)O` [enalapril], in data set [2] (after 4 weeks treatment), the “FE K+ end” value is 15.6 ± 0.4%, the “FE Na+ end” value is recorded as 0.18 ± 0.01%, the “UAE w22” value is 583 ± 97 µg 24h-1 and the “p-K+ end” value was 4.4 ± 0.1 mM. In data set [2] (after 4 weeks treatment), the “u-K+ end” value worked out at 0.90 ± 0.07 mmol/24h, the “u-Na+ end” value was found to be 0.36 ± 0.03 mmol/24h and the “u-Na+/K+ end” value is reported as 0.40 ± 0.01. Moreover, the “UAE w18” value in data set [2] (before treatment, 18 weeks of age) amounted to 958 ± 184 µg 24h-1. The “increased injury (glomerular ECM scoring) from week 18 to 22” value in data set [2] (four week treatment) is reported as “prevented”.
